Experimental findings from PubChem BioAssay AID489040 (Sanford-Burnham Center for Chemical Genomics, 2010) are described below.

Calls of active or inactive are those of the source.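 Rule for the calls: active = mean half-maximal activating concentration from the dose-response fit at or below a set limit; inactive = the rest.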

This experiment has as its target CHO-XBP1 luciferase reporter, IRE1-XBP1 UPR activation. The experiment in a line: activators of IRE1-XBP1 UPR arm, dose response, counter-screen for apoptotic UPR arm activators, CHO-XBP1 cells, luminescence (AID 489040).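 Note: reporter read after six hours of compound exposure.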
For `COC(=O)c1cc(=O)n(CCc2ccc(OC)cc2)c(=Nc2ccc(F)c(Cl)c2)s1`, the EC50 (commonly the concentration giving half of the maximal effect) is > 80 µM (inactive).

For the molecule `COc1ccc2cc(C)c3nnc(SCC(=O)Nc4nc(-c5ccc(F)cc5)cs4)n3c2c1`, the EC50 result was “inactive”.

With `COc1cc(SC#N)ccc1N=Cc1c(C)[nH]n(-c2ccc(C)c(C)c2)c1=O`, the EC50 is > 80 µM (inactive).

As to `C/C(=N\NC(=O)c1cccc2ccccc12)c1ccccn1`, the EC50 is > 80 µM (inactive).

Take `O=C1C(CSCc2ccccc2)NC(=S)N1c1ccccc1` (stereo not drawn): the EC50 was > 80 µM (inactive).

With `COC(=O)C1=C(C)N(c2ccc(C)c(C)c2)/C(=C/c2cccs2)C1=O`, the EC50 is > 80 µM (inactive).

Turning to `O=C(N/N=C(\c1ccccc1)c1ccccn1)c1cccc([N+](=O)[O-])c1`, the EC50 is > 80 µM (inactive).

For the molecule `CCOc1cccc(C(=O)Nc2cccc(-c3nnc(-c4ccc(C)cc4)o3)c2)c1`, the EC50 was > 80 µM (inactive).

For the molecule `CCc1ccc2nc(N(CCCN(C)C)C(=O)c3ccc(S(=O)(=O)N4CCc5ccccc5C4)cc3)sc2c1`, the EC50 was > 80 µM (inactive).

For the molecule `COc1ccc(CCN2CCC(Nc3nc4ccccc4n3Cc3ccc(F)cc3)CC2)cc1`, the EC50 is > 80 µM (inactive).

Turning to `Cc1ccn2cc(-c3ccc(O)c(O)c3)nc2c1`, the EC50 was > 80 µM (inactive).

In the case of `Oc1ccc(/C=N/N2CCCCC2)cc1O`, the EC50 was > 80 µM (inactive).

With `CCOC(=O)c1cc(-c2ccc(/C=C3/C(=O)N(c4ccc(C(=O)O)cc4)N=C3C)o2)ccc1Cl`, the EC50 is > 80 µM (inactive).

For the molecule `CCc1nc(N=Nc2c(O)[nH]c3ccccc23)c2c3c(sc2n1)CCC3`, the EC50 result was “inactive”.

On to `CC1CCN(Cc2c(C(=O)N/N=C/c3ccc(C(C)(C)C)cc3)nnn2-c2nonc2N)CC1`, for which the EC50 is > 80 µM (inactive).

For the molecule `COc1ccccc1N1C(=O)C=C(Sc2nc(C)cc(C)n2)C1=O`, the EC50 was > 80 µM (inactive).

Regarding `COc1cccc2sc(Nc3nc(C)c(C(C)=O)s3)nc12`, the EC50 is > 80 µM (inactive).

Regarding `O=C(N/N=C/c1ccccn1)c1cc(-c2ccccc2)nc2ccccc12`, the EC50 is > 80 µM (inactive).

For the molecule `COc1ccc(-c2nc(-c3ccccc3)nc(Cl)c2C#N)cc1`, the EC50 result is “inactive”.

For `COc1ccc(NC(=O)c2sc3nc(N4CCOCC4)c4c(c3c2N)CC(C)(C)OC4)c(OC)c1`, the EC50 is > 80 µM (inactive).

In the case of `CCOC(=O)c1ccc(-c2ccc(/C=N/NC(=O)CN(c3cccc(C)c3)S(C)(=O)=O)o2)cc1`, the EC50 entry was “inactive”.

For the molecule `CCOC(=O)c1ccc(N=C2C(=S)N(c3ccc(C(=O)OCC)cc3)C(=N)N2/N=C/c2ccccc2)cc1`, the EC50 is > 80 µM (inactive).

As to `COc1cc(/C=C2\CC(C(C)(C)C)C/C(=C\c3cc(OC)c(OC)c(OC)c3)C2=O)cc(OC)c1OC` (stereo not drawn), the EC50 was > 80 µM (inactive).

Consider `CCCCC1CCC(C(=O)N(CCCC)c2c(N)n(CCCC)c(=O)[nH]c2=O)CC1` (stereo not drawn), for which the EC50 was > 80 µM (inactive).

As to `Cc1cccc(C)c1NC(=O)C(Cl)C(=O)c1ccccc1` (stereo not drawn), the EC50 was > 80 µM (inactive).

As for `Cc1coc2c1C(=O)C(=O)c1c-2ccc2c(C)cccc12`, the EC50 was > 80 µM (inactive).

As to `Cc1ccc(Cc2cnc(NC(=O)/C(C#N)=C/c3ccc(-c4cccc([N+](=O)[O-])c4)o3)s2)cc1`, the 50% effective concentration (EC50) is 9.32 µM.

Consider `COc1c(Cl)cc(Cl)cc1/C=C/C(=O)c1ccc(NC(=O)c2cccs2)cc1`, for which the EC50 is > 80 µM (inactive).

`C/C(=N\NC(=O)c1ccc(Cl)c(Cl)c1)c1ccccn1`: the EC50 is > 80 µM (inactive).

Regarding `Cc1[nH]c2ccccc2c1CN1CCC(Cc2ccccc2)CC1`, the EC50 is > 80 µM (inactive).

Take `O=C(Nc1ccc(NC(=O)c2sc3ccccc3c2Cl)cc1Cl)c1ccco1`: the EC50 entry was “inactive”.

Turning to `O=CC1=C(c2ccccc2)Oc2ccccc2O1`, the EC50 is > 80 µM (inactive).

For the molecule `CCOc1cc(/C=C2\CN(CC)C/C(=C\c3ccc(O)c(OCC)c3)C2=O)ccc1O`, the EC50 was > 80 µM (inactive).
